Experimental data as given in patent US11331369B2, “Endoparasitic depsipeptides” (Zoetis Services LLC, priority 2017, dated 2022).

Each compound was assayed on microfilariae of Dirofilaria immitis (assay: Dirofilaria immitis, Microfilaria (DiMF) In vitro Assay). Conditions: 72 h, read-out: DiMF Minimum Effective Dose (MED), approximately 72 hours incubation, microfilariae assessed for survival or paralysis.
Assay type: cell-based

Row | Structure (SMILES) | minimal effective concentration [µM]
1 | CNC(=O)c1cnn(Cc2ccc(C[C@H]3OC(=O)[C@H](CC(C)C)N(C)C(=O)[C@@H](C)OC(=O)[C@H](CC(C)C)N(C)C(=O)[C@@H](Cc4ccc(Cn5cc(C(=O)NC)cn5)cc4)OC(=O)[C@H](CC(C)C)N(C)C(=O)[C@@H](C)OC(=O)[C@H](CC(C)C)N(C)C3=O)cc2)c1 [Example 1b-53, 1,1′-(((((2R,5S,8R,11 S,14R,17S,20R,23S)-5,11,17,23-tetraisobutyl-4,8,10,16,20,22-hexamethyl-3,6,9,12,15,18,21,24-octaoxo-1,7,13,19-tetraoxa-4,10,16,22-tetraazacyclotetracosane-2,14-diyl)bis(methylene))bis(4,1-phenylene))bis(methylene))bis(N-methyl-1H-pyrazole-4-carboxamide)] | 0.01 to 0.1
2 | CC(C)C[C@H]1C(=O)O[C@H](Cc2ccc(Cn3cc(S(=O)(=O)N4CCCC4)cn3)cc2)C(=O)N(C)[C@@H](CC(C)C)C(=O)O[C@H](C)C(=O)N(C)[C@@H](CC(C)C)C(=O)O[C@H](Cc2ccc(Cn3cc(S(=O)(=O)N4CCCC4)cn3)cc2)C(=O)N(C)[C@@H](CC(C)C)C(=O)O[C@H](C)C(=O)N1C [Example 1b-54, (3S,6R,9S,12R,15S,18R,21S,24R)-3,9,15,21-tetraisobutyl-4,6,10,16,18,22-hexamethyl-12,24-bis(4-((4-(pyrrolidin-1-ylsulfonyl)-1H-pyrazol-1-yl)methyl)benzyl)-1,7,13,19-tetraoxa-4,10,16,22-tetraazacyclotetracosan-2,5,8,11,14,17,20,23-octaone] | 0.01 to 0.1
3 | CC(C)C[C@H]1C(=O)O[C@H](Cc2ccc(Cn3cc(C(F)F)cn3)cc2)C(=O)N(C)[C@@H](CC(C)C)C(=O)O[C@H](C)C(=O)N(C)[C@@H](CC(C)C)C(=O)O[C@H](Cc2ccc(Cn3cc(C(F)F)cn3)cc2)C(=O)N(C)[C@@H](CC(C)C)C(=O)O[C@H](C)C(=O)N1C [Example 1b-62, (3S,6R,9S,12R,15S,18R,21S,24R)-6,18-bis(4-((4-(difluoromethyl)-1H-pyrazol-1-yl)methyl)benzyl)-3,9,15,21-tetraisobutyl-4,10,12,16,22,24-hexamethyl-1,7,13,19-tetraoxa-4,10,16,22-tetraazacyclotetracosan-2,5,8,11,14,17,20,23-octaone] | 0.001 to 0.01
4 | CC(C)C[C@H]1C(=O)O[C@H](Cc2ccc(Cn3ccc(Br)n3)cc2)C(=O)N(C)[C@@H](CC(C)C)C(=O)O[C@H](C)C(=O)N(C)[C@@H](CC(C)C)C(=O)O[C@H](Cc2ccc(Cn3ccc(Br)n3)cc2)C(=O)N(C)[C@@H](CC(C)C)C(=O)O[C@H](C)C(=O)N1C [Example 1b-63, (3S,6R,9S,12R,15S,18R,21S,24R)-6,18-bis(4-((3-bromo-1H-pyrazol-1-yl)methyl)benzyl)-3,9,15,21-tetraisobutyl-4,10,12,16,22,24-hexamethyl-1,7,13,19-tetraoxa-4,10,16,22-tetraazacyclotetracosan-2,5,8,11,14,17,20,23-octaone] | 0.01 to 0.1
5 | CC(C)C[C@H]1C(=O)O[C@H](Cc2ccc(Cn3ccc(I)n3)cc2)C(=O)N(C)[C@@H](CC(C)C)C(=O)O[C@H](C)C(=O)N(C)[C@@H](CC(C)C)C(=O)O[C@H](Cc2ccc(Cn3ccc(I)n3)cc2)C(=O)N(C)[C@@H](CC(C)C)C(=O)O[C@H](C)C(=O)N1C [Example 1b-64, (3S,6R,9S,12R,15S,18R,21S,24R)-6,18-bis(4-((3-iodo-1H-pyrazol-1-yl)methyl)benzyl)-3,9,15,21-tetraisobutyl-4,10,12,16,22,24-hexamethyl-1,7,13,19-tetraoxa-4,10,16,22-tetraazacyclotetracosan-2,5,8,11,14,17,20,23-octaone] | 0.01 to 0.1
6 | CC(C)C[C@H]1C(=O)O[C@H](Cc2ccc(Cn3ccc(C4CC4)n3)cc2)C(=O)N(C)[C@@H](CC(C)C)C(=O)O[C@H](C)C(=O)N(C)[C@@H](CC(C)C)C(=O)O[C@H](Cc2ccc(Cn3ccc(C4CC4)n3)cc2)C(=O)N(C)[C@@H](CC(C)C)C(=O)O[C@H](C)C(=O)N1C [Example 1b-67, (3S,6R,9S,12R,15S,18R,21S,24R)-6,18-bis(4-((3-cyclopropyl-1H-pyrazol-1-yl)methyl)benzyl)-3,9,15,21-tetraisobutyl-4,10,12,16,22,24-hexamethyl-1,7,13,19-tetraoxa-4,10,16,22-tetraazacyclotetracosan-2,5,8,11,14,17,20,23-octaone] | 0.01 to 0.1
7 | CC(C)C[C@H]1C(=O)O[C@H](Cc2ccc(Cn3cc(-c4ccccn4)cn3)cc2)C(=O)N(C)[C@@H](CC(C)C)C(=O)O[C@H](C)C(=O)N(C)[C@@H](CC(C)C)C(=O)O[C@H](Cc2ccc(Cn3cc(-c4ccccn4)cn3)cc2)C(=O)N(C)[C@@H](CC(C)C)C(=O)O[C@H](C)C(=O)N1C [Example 1b-71, (3S,6R,9S,12R,15S,18R,21S,24R)-3,9,15,21-tetraisobutyl-4,6,10,16,18,22-hexamethyl-12,24-bis(4-((4-(pyridin-2-yl)-1H-pyrazol-1-yl)methyl)benzyl)-1,7,13,19-tetraoxa-4,10,16,22-tetraazacyclotetracosan-2,5,8,11,14,17,20,23-octaone] | 0.01 to 0.1
8 | CC(C)C[C@H]1C(=O)O[C@H](Cc2ccc(Cn3cc(CCO)cn3)cc2)C(=O)N(C)[C@@H](CC(C)C)C(=O)O[C@H](C)C(=O)N(C)[C@@H](CC(C)C)C(=O)O[C@H](Cc2ccc(Cn3cc(CCO)cn3)cc2)C(=O)N(C)[C@@H](CC(C)C)C(=O)O[C@H](C)C(=O)N1C [Example 1b-75, (3S,6R,9S,12R,15S,18R,21S,24R)-6,18-bis(4-((4-(2-hydroxyethyl)-1H-pyrazol-1-yl)methyl)benzyl)-3,9,15,21-tetraisobutyl-4,10,12,16,22,24-hexamethyl-1,7,13,19-tetraoxa-4,10,16,22-tetraazacyclotetracosan-2,5,8,11,14,17,20,23-octaone] | 0.01 to 0.1
9 | CC(C)C[C@H]1C(=O)O[C@H](Cc2ccc(Cn3cc(-c4cnccn4)cn3)cc2)C(=O)N(C)[C@@H](CC(C)C)C(=O)O[C@H](C)C(=O)N(C)[C@@H](CC(C)C)C(=O)O[C@H](Cc2ccc(Cn3cc(-c4cnccn4)cn3)cc2)C(=O)N(C)[C@@H](CC(C)C)C(=O)O[C@H](C)C(=O)N1C [Example 1b-87, (3S,6R,9S,12R,15S,18R,21S,24R)-3,9,15,21-tetraisobutyl-4,6,10,16,18,22-hexamethyl-12,24-bis(4-((4-(pyrazin-2-yl)-1H-pyrazol-1-yl)methyl)benzyl)-1,7,13,19-tetraoxa-4,10,16,22-tetraazacyclotetracosan-2,5,8,11,14,17,20,23-octaone] | 0.01 to 0.1
10 | CC(C)C[C@H]1C(=O)O[C@H](Cc2ccc(Cn3ccc(CO)n3)cc2)C(=O)N(C)[C@@H](CC(C)C)C(=O)O[C@H](C)C(=O)N(C)[C@@H](CC(C)C)C(=O)O[C@H](Cc2ccc(Cn3ccc(CO)n3)cc2)C(=O)N(C)[C@@H](CC(C)C)C(=O)O[C@H](C)C(=O)N1C [Example 1b-97, (3S,6R,9S,12R,15S,18R,21S,24R)-6,18-bis(4-((3-(hydroxymethyl)-1H-pyrazol-1-yl)methyl)benzyl)-3,9,15,21-tetraisobutyl-4,10,12,16,22,24-hexamethyl-1,7,13,19-tetraoxa-4,10,16,22-tetraazacyclotetracosan-2,5,8,11,14,17,20,23-octaone] | 0.01 to 0.1
